Article PMC6220849, “Mechanistic and structural studies of KDM‐catalysed demethylation of histone 1 isotype 4 at lysine 26” (Febs Letters, 2018)
Square brackets hold non-standard residues; d marks the D form. Ends that are not written are not given here. Lys(Me2) = CN(C)CCCC[C@H](N)C(=O)O; Lys(Me) = CNCCCC[C@H](N)C(=O)O

Columns and labels:
Format in all cases: biochemical, human
KDM2A (KDM2A1–557) = assay: MALDI-TOF MS demethylation activity assay, KDM2A; set-up: key: 🟢: Indicates that clear demethylation activity was observed; 🟡: Indicates that low level demethylation activity was observed (<10% conversion after 1 h); 🔴: Indicates no activity under the stated conditions (1 μM KDM, 10 μM peptide); 🟡*: *Indicates demethylation activity was only observed with 5 μM KDM; conditions: peptide as substrate, 1 μM KDM, 10 μM peptide, 50 mM HEPES pH 7.5, Fe(II) 10 μM, ascorbate 100 μM, 2OG 200 μM, 1 h at 37 °C
Description: (§1) Recombinant proteins (1 μM) were incubated with peptides (10 μM, sequences are given in Table S1) in 50 mM HEPES, pH 7.5 with addition of Fe(II) ammonium sulfate (10 μM), sodium ascorbate (100 μM) and 2‐oxoglutaric acid (200 μM). Reactions with KDM3A and KDM7A also contained 1 mM tris(2‐carboxyethyl)phosphine hydrochloride. No enzyme reactions were included as negative controls. Reactions were incubated for 1 h at 37 °C before being quenched with 1 : 1 (v/v) methanol. Analysis was carried out by MALDI‐TOF MS (Bruker, Billerica, MA, USA), with demethylation observed as mass shifts of 14 Da.
(§2) The propensity of human JmjC KDMs to catalyse demethylation at H1.4K26 was investigated using recombinant forms of the catalytic domains of representatives of each human JmjC KDM subfamily (KDM2‐7) and fragment peptides (Table S1) 37. Three peptides with identical sequences, corresponding to residues 18–32 of histone H1.4 (H2N‐[…]‐CONH2), but containing either a N ^ε‐tri‐, di‐ or monomethyllysine at K26 were synthesised (Fig. 1B and Table S1). Activity assays monitoring JmjC KDM‐catalysed demethylation of the peptides were then carried out; samples were prepared containing each peptide, 2‐oxoglutarate (2OG), ferrous iron, ascorbate and individual representatives from each JmjC KDM subfamily (KDM2A 38, KDM3A 21, KDM4E 22, KDM5C 39, 40, KDM6B 41, KDM7A 42).

KDM3A (KDM3A515–1317) = assay: MALDI-TOF MS demethylation activity assay, KDM3A; set-up: key: 🟢: Indicates that clear demethylation activity was observed; 🟡: Indicates that low level demethylation activity was observed (<10% conversion after 1 h); 🔴: Indicates no activity under the stated conditions (1 μM KDM, 10 μM peptide); 🟡*: *Indicates demethylation activity was only observed with 5 μM KDM; conditions: peptide as substrate, 1 μM KDM, 10 μM peptide, 50 mM HEPES pH 7.5, Fe(II) 10 μM, ascorbate 100 μM, 2OG 200 μM, 1 mM TCEP, 1 h at 37 °C
Description: as §1, §2

KDM4A (KDM4A1–359) = assay: MALDI-TOF MS demethylation activity assay, KDM4A; set-up: key: 🟢: Indicates that clear demethylation activity was observed; 🟡: Indicates that low level demethylation activity was observed (<10% conversion after 1 h); 🔴: Indicates no activity under the stated conditions (1 μM KDM, 10 μM peptide); 🟡*: *Indicates demethylation activity was only observed with 5 μM KDM; conditions: peptide as substrate, 1 μM KDM, 10 μM peptide, 50 mM HEPES pH 7.5, Fe(II) 10 μM, ascorbate 100 μM, 2OG 200 μM, 1 h at 37 °C
Description: as §1
(§3) Given the activity observed with KDM4E and KDM7A, we decided to investigate the intra‐subfamily conservation of this demethylation activity. The demethylation activity of the other subfamily members (KDM4A‐D and KDM7B) was therefore screened. […] Note that as with H3K9, demethylation of the monomethylated H1.4K26 peptide was only observed with KDM4E, under the stated conditions 24.

KDM4B (KDM4B1–359) = assay: MALDI-TOF MS demethylation activity assay, KDM4B; set-up: key: 🟢: Indicates that clear demethylation activity was observed; 🟡: Indicates that low level demethylation activity was observed (<10% conversion after 1 h); 🔴: Indicates no activity under the stated conditions (1 μM KDM, 10 μM peptide); 🟡*: *Indicates demethylation activity was only observed with 5 μM KDM; conditions: peptide as substrate, 1 μM KDM, 10 μM peptide, 50 mM HEPES pH 7.5, Fe(II) 10 μM, ascorbate 100 μM, 2OG 200 μM, 1 h at 37 °C
Description: as §1, §3

KDM4C (KDM4C1–359) = assay: MALDI-TOF MS demethylation activity assay, KDM4C; set-up: key: 🟢: Indicates that clear demethylation activity was observed; 🟡: Indicates that low level demethylation activity was observed (<10% conversion after 1 h); 🔴: Indicates no activity under the stated conditions (1 μM KDM, 10 μM peptide); 🟡*: *Indicates demethylation activity was only observed with 5 μM KDM; conditions: peptide as substrate, 1 μM KDM, 10 μM peptide, 50 mM HEPES pH 7.5, Fe(II) 10 μM, ascorbate 100 μM, 2OG 200 μM, 1 h at 37 °C
Description: as §1, §3

KDM4D (KDM4D1–359) = assay: MALDI-TOF MS demethylation activity assay, KDM4D; set-up: key: 🟢: Indicates that clear demethylation activity was observed; 🟡: Indicates that low level demethylation activity was observed (<10% conversion after 1 h); 🔴: Indicates no activity under the stated conditions (1 μM KDM, 10 μM peptide); 🟡*: *Indicates demethylation activity was only observed with 5 μM KDM; conditions: peptide as substrate, 1 μM KDM, 10 μM peptide, 50 mM HEPES pH 7.5, Fe(II) 10 μM, ascorbate 100 μM, 2OG 200 μM, 1 h at 37 °C
Description: as §1, §3

KDM5C (KDM5C1–765) = assay: MALDI-TOF MS demethylation activity assay, KDM5C; set-up: key: 🟢: Indicates that clear demethylation activity was observed; 🟡: Indicates that low level demethylation activity was observed (<10% conversion after 1 h); 🔴: Indicates no activity under the stated conditions (1 μM KDM, 10 μM peptide); 🟡*: *Indicates demethylation activity was only observed with 5 μM KDM; conditions: peptide as substrate, 1 μM KDM, 10 μM peptide, 50 mM HEPES pH 7.5, Fe(II) 10 μM, ascorbate 100 μM, 2OG 200 μM, 1 h at 37 °C
Description: as §1, §2

KDM6B (KDM6B1141–1590) = assay: MALDI-TOF MS demethylation activity assay, KDM6B; set-up: key: 🟢: Indicates that clear demethylation activity was observed; 🟡: Indicates that low level demethylation activity was observed (<10% conversion after 1 h); 🔴: Indicates no activity under the stated conditions (1 μM KDM, 10 μM peptide); 🟡*: *Indicates demethylation activity was only observed with 5 μM KDM; conditions: peptide as substrate, 1 μM KDM, 10 μM peptide, 50 mM HEPES pH 7.5, Fe(II) 10 μM, ascorbate 100 μM, 2OG 200 μM, 1 h at 37 °C
Description: as §1, §2

KDM7A (KDM7A38–480) = assay: MALDI-TOF MS demethylation activity assay, KDM7A; conditions: for demethylation activity on methylated H1.4 peptide: peptide as substrate, MALDI-TOF MS, 1 μM KDM, 10 μM peptide, 50 mM HEPES pH 7.5, Fe(II) 10 μM, ascorbate 100 μM, 2OG 200 μM, 1 mM TCEP, 1 h at 37 °C
Description: as §1, §2
(§4) N ^ε‐Trimethylated H3K4 binds to the plant homeobox domain of KDM7B, targeting the N ^ε‐dimethyllysine at H3K9 to the catalytic domain, and thus promoting demethylation 29, 44. To test whether similar targeting may occur with H1.4, promoting activity at H1.4K26, an H1.4 peptide was synthesised containing di‐N ^ε‐methyllysine at K26 and tri‐N ^ε‐methyllysine at K21 (i.e. at the equivalent position in the sequence to K4 in the H3 peptide, Fig. 1B, Table S1). Monomethylation at H1.4K21 has previously been observed by proteomic mass spectrometry 45. With the aim of enhancing activity, the enzyme concentration was increased from 1 μM to 5 μM, and time course analyses were conducted with both KDM7A and KDM7B, both with the new peptide (H1.4(18–32)K21me3K26me2) and the H1.4 peptides methylated only at K26 (Fig. 2B). […] Thus, it appears unlikely that N ^ε‐trimethylation at H1.4K21 promotes demethylation at H1.4K26 by KDM7B.

KDM7B (PHF8; KDM7B1–447) = assay: MALDI-TOF MS demethylation activity assay, KDM7B (PHF8); set-up: key to demethylation activity on methylated H1.4 peptide: 🟢: Indicates that clear demethylation activity was observed; 🟡: Indicates that low level demethylation activity was observed (<10% conversion after 1 h); 🔴: Indicates no activity under the stated conditions (1 μM KDM, 10 μM peptide); 🟡*: *Indicates demethylation activity was only observed with 5 μM KDM; conditions: for demethylation activity on methylated H1.4 peptide: peptide as substrate, MALDI-TOF MS, 1 μM KDM (* = only with 5 μM KDM), 10 μM peptide, 50 mM HEPES pH 7.5, Fe(II) 10 μM, ascorbate 100 μM, 2OG 200 μM, 1 h at 37 °C; for demethylation at increased enzyme concentration (result in words): MALDI-TOF MS time course, KDM7B 5 μM, peptide 10 μM, 37 °C
Description: as §1, §3, §4

KDM4E (KDM4E1–337) = assay: MALDI-TOF MS demethylation activity assay, KDM4E; set-up: key: 🟢: Indicates that clear demethylation activity was observed; 🟡: Indicates that low level demethylation activity was observed (<10% conversion after 1 h); 🔴: Indicates no activity under the stated conditions (1 μM KDM, 10 μM peptide); 🟡*: *Indicates demethylation activity was only observed with 5 μM KDM; conditions: peptide as substrate, 1 μM KDM, 10 μM peptide, 50 mM HEPES pH 7.5, Fe(II) 10 μM, ascorbate 100 μM, 2OG 200 μM, 1 h at 37 °C
Description: as §1, §2

| demethylation at increased enzyme concentration (result in words) (KDM7A (KDM7A38–480); MALDI-TOF MS time course, KDM7A 5 μM, peptide 10 μM, 37 °C) | demethylation at increased enzyme concentration (result in words) (KDM7B (PHF8; KDM7B1–447); listed as H1.4K26me2) | Substance | demethylation activity on methylated H1.4 peptide (KDM2A (KDM2A1–557)) | demethylation activity on methylated H1.4 peptide (KDM3A (KDM3A515–1317)) | demethylation activity on methylated H1.4 peptide (KDM4A (KDM4A1–359)) | demethylation activity on methylated H1.4 peptide (KDM4B (KDM4B1–359)) | demethylation activity on methylated H1.4 peptide (KDM4C (KDM4C1–359)) | demethylation activity on methylated H1.4 peptide (KDM4D (KDM4D1–359)) | demethylation activity on methylated H1.4 peptide (KDM5C (KDM5C1–765)) | demethylation activity on methylated H1.4 peptide (KDM6B (KDM6B1141–1590)) | demethylation activity on methylated H1.4 peptide (KDM7A (KDM7A38–480)) | demethylation activity on methylated H1.4 peptide (KDM7B (PHF8; KDM7B1–447)) | demethylation activity on methylated H1.4 peptide (KDM4E (KDM4E1–337)) | demethylation at increased enzyme concentration (result in words) (KDM7B (PHF8; KDM7B1–447)) |
| --- | --- | --- | --- | --- | --- | --- | --- | --- | --- | --- | --- | --- | --- | --- |
| – | – | TPVKKKAR[Lys(Me)]SAGAAK [H1.4(18–32)K26me1, peptide of residues 18–32 of histone H1.4 with N ε-monomethyllysine at K26] | 🔴 | 🔴 | 🔴 | 🔴 | 🔴 | 🔴 | 🔴 | 🔴 | 🟡 (Indicates that low level demethylation activity was observed (<10% conversion after 1 h)) | 🟡* | – | – |
| clear evidence for demethylation | clear evidence for demethylation | TPVKKKAR[Lys(Me2)]SAGAAK [H1.4(18–32)K26me2, peptide of residues 18–32 of histone H1.4 with N ε-dimethyllysine at K26] | 🔴 | 🔴 | 🟢 | 🟢 | 🟢 | 🟢 | 🔴 | 🔴 | 🟡 (Indicates that low level demethylation activity was observed (<10% conversion after 1 h)) | 🟡* | 🟢 | demethylation of H1.4(18-32)K26me2 is observed |
